Source: patent US11453679B2, “Methyl 2-methyl-5-oxo-1,4,5,7-tetradhydrofuro[3,4-b]pyridine-3-carboxylate compounds as Cav1.2 activators” (Novartis AG, priority 2020, dated 2022)
Values belong to the molecule of their own block, whether it stands above or below them.

Assays:
human Cav1.2 [1] = target: T1, human Cav1.2 (Homo sapiens, UniProt Q13936); assay: Sophion QPatch whole-cell voltage clamp dose-response assay, Cav1.2-HEK293(AUX) cell line (barium currents); conditions: for QPatch Emax: maximal fold change of peak inward current
Protocol: 24 hours prior an electrophysiology experiment, doxycycline (1 μg/ml) was added to the growth medium (Table 1), and 25 μM of verapamil was co-applied to prevent calcium influx triggered cell death. Cell confluency should reach 70%-80% right before the experiment.
To harvest cells (from a T175 cm^2 flask as an example), growth media were removed completely, and the cells were rinsed with 10 mL of D-PBS. D-PBS was aspirated, and 10 mL of Detachin (Genlantis) was added and the plate was placed in a 37° C. incubator for 10 minutes. Detached cells were placed into a 15 mL conical tube and spun at 1000 rpm for 2 minutes. Supernatant was removed, and cells were re-suspended in QPatch complete media (Table 2) to desired cell density of 1.5-3 million cells per QPatch run. Each experimental run uses 1.5 mL of cells.
The cells suspension was taken to the Sophion QPatch platform that uses whole-cell voltage clamp to measure barium currents conducted through Cav1.2 on single-hole QPlates. […] A dose-response assay protocol was used to determine the maximal fold change of peak inward current (Emax) and potency (EC50) of each compound. The protocol had eight liquid periods. The first liquid period was to stabilize current amplitude, which was monitored using repetitive 200-ms voltage pulses stepping from −80 mV to 0 mV. The second liquid period was to determine baseline current amplitude in the presence of vehicle control, using a single 20-ms voltage pulse stepping from −80 mV to 0 mV. The third through eighth liquid periods were used to ascertain a 6-dose response to compound treatments, also using single 20-ms voltage pulses stepping from −80 mV to 0 mV. The EC50 was generated using the following equation Iconcentration=Ibase+(Ifull−Ibase)*c^n/(XC50^n+c^n), where c is the concentration and n is the Hill coefficient constant. Ifull is the maximal current achievable, and Ibase is 0.

human Cav1.2 [2] = target: T1, human Cav1.2; assay: QPatch channel biophysics assay (current-voltage relationship, V1/2, tau of inactivation), Cav1.2-HEK293(AUX) cell line; assay type: cell-based; parameters: expressed in transfected cells; host or cells: Flp-In 293 T-Rex (HEK293), clone 2-19B, stably transfected with pCMV6-entry-CACNA1C and pcDNA5H/FRT-TO-CACNA2D2-FCS-P2A-CACNB2
Protocol: Clonal isolation was achieved under Neomycin selection.
Each experimental run uses 1.5 mL of cells.
The protocol had eight liquid periods. […] The protocol had four liquid periods.

[3] = Compound exposure in wild-type mice (cerebellum and blood, mass spectrometry); conditions: male, C57BL/6J, mouse, brain (cerebellum) and whole blood
Protocol: Compound administration and brain tissue collection. Wild-type C57BL/6J male mice were obtained from Jackson laboratories (Bar Harbor, Me.). The acute, single-dose effects of Cav1.2 activators of the present disclosure were evaluated in male eight-week old mice (n=6 mice per compound). Each compound was dissolved in 10% PEG300, 10% Solutol, 10% Cremophore EL, and 70% Phosphate Buffered Saline and administered intraperitoneal (i.p.) at a concentration of 1 mg/kg up to 30 mg/kg depending on the compound. Animals were euthanized one hour after compound administration via exsanguination under deep anesthesia. Blood was collected in EDTA tubes for downstream analysis of drug levels. Brains were rapidly removed from the skull, and the cerebral cortex and cerebellum were regionally dissected. Cerebellar samples were snap frozen in liquid nitrogen to assess compound exposure.
Quantification of compound exposure. Cerebellar tissue samples were homogenized in 4 mL of 20% acetonitrile and 80% Phosphate buffered saline for every 1 g of tissue (5× dilution). Tissue was homogenized using either of the following three methods: hand held probe system, TissueLyser system with 5 mm steel bead at a frequency of 30 s^−1 for 4 min, or OMNI Bead Ruptor Elite homogenizer for 30 seconds to 1 minute depending on tissue type. Tissue samples were added to a 96-well plate (12.5 μL sample) and processed for quantification by mass spectrometry.

cFos mRNA = cFos mRNA induction in cortex of wild-type mice (quantitative PCR); assay type: in vivo, C57BL/6J male mice; conditions: one hour after administration
Protocol: Compound administration and brain tissue collection.
Quantification of cFos mRNA induction. Tissue homogenization was performed using TissueLyser system for 96 well plates (Qiagen). First, frozen cortical samples were thawed, removed from RNAlater, and placed into TissueLyser tubes along with Buffer RLT containing 0.5% Reagent DX and one 5 mm TissueLyser metal bead. The TissueLyser tubes were loaded into a TissueLyser II tissue homogenizer for 3 rounds of homogenization, with each round lasting 5 minutes at 30 Hz bead-beating frequency. Total RNA was purified from the homogenate using RNeasy 96 Plus kit (Qiagen), RNA concentration and A260/A280 ratio were quantified via the Nanodrop (ThermoFisher), and all samples were normalized to 100 ng/μl concentration. RNA was reverse transcribed into cDNA using the Superscript III First-strand synthesis SuperMix Kit (ThermoFisher). For each sample, 6 μl of RNA (600 ng total) was mixed with 1 μL of Oligo dT and 1 μL of annealing buffer and heated to 65° C. for 5 minutes. Next, 10 μL of 2× First-Strand Reaction Mix and 2 μL of the Enzyme mix were added to achieve a total reaction volume of 20 μL. The samples were heated to 50° C. for 50 minutes then 85° C. for 5 minutes to complete cDNA synthesis.
Quantitative PCR was performed on the cDNA samples using Quantitect Multiplex RT-PCR kit (Qiagen) in a 384-well assay format. Each PCR well contained 2 μL of cDNA (60 ng total), 10 μL of RT-PCR mastermix, 1 μL of cFos FAM Taqman probe (Mm00487425_m1 (FAM) #4351368), 1 μL of GAPDH VIC Taqman probe (Mm99999915-g1 (VIC) #4448486), 0.2 μL of Multiplex RT mix and 5.8 μl of RNase-free water. On the ViiA7 Real-Time PCR system (ThermoFisher), the samples were heated to 95° C. for 15 minutes then cycled between 94° C. for 45 seconds and 60° C. for 45 seconds for 45 cycles. cFos Ct values were exported, normalized to GAPDH Ct values, and converted to relative fold change in expression using the delta-delta Ct relative quantification method. cFos fold changes between compound treatments and vehicle were analyzed by one-way ANOVA, followed by Tukey's post-hoc comparisons.

[4] = QPatch EC50, 6-point dose response, 20-ms pulses from −80 mV to 0 mV, n = 1 unless marked (* n = 2, # n = 3)
[5] = shift of half-way channel activation voltage (V1/2)
[6] = QPatch EC50, comparative examples, known CaV1.2 activators (Table 6)

T1 sequence (Q13936 whole entry): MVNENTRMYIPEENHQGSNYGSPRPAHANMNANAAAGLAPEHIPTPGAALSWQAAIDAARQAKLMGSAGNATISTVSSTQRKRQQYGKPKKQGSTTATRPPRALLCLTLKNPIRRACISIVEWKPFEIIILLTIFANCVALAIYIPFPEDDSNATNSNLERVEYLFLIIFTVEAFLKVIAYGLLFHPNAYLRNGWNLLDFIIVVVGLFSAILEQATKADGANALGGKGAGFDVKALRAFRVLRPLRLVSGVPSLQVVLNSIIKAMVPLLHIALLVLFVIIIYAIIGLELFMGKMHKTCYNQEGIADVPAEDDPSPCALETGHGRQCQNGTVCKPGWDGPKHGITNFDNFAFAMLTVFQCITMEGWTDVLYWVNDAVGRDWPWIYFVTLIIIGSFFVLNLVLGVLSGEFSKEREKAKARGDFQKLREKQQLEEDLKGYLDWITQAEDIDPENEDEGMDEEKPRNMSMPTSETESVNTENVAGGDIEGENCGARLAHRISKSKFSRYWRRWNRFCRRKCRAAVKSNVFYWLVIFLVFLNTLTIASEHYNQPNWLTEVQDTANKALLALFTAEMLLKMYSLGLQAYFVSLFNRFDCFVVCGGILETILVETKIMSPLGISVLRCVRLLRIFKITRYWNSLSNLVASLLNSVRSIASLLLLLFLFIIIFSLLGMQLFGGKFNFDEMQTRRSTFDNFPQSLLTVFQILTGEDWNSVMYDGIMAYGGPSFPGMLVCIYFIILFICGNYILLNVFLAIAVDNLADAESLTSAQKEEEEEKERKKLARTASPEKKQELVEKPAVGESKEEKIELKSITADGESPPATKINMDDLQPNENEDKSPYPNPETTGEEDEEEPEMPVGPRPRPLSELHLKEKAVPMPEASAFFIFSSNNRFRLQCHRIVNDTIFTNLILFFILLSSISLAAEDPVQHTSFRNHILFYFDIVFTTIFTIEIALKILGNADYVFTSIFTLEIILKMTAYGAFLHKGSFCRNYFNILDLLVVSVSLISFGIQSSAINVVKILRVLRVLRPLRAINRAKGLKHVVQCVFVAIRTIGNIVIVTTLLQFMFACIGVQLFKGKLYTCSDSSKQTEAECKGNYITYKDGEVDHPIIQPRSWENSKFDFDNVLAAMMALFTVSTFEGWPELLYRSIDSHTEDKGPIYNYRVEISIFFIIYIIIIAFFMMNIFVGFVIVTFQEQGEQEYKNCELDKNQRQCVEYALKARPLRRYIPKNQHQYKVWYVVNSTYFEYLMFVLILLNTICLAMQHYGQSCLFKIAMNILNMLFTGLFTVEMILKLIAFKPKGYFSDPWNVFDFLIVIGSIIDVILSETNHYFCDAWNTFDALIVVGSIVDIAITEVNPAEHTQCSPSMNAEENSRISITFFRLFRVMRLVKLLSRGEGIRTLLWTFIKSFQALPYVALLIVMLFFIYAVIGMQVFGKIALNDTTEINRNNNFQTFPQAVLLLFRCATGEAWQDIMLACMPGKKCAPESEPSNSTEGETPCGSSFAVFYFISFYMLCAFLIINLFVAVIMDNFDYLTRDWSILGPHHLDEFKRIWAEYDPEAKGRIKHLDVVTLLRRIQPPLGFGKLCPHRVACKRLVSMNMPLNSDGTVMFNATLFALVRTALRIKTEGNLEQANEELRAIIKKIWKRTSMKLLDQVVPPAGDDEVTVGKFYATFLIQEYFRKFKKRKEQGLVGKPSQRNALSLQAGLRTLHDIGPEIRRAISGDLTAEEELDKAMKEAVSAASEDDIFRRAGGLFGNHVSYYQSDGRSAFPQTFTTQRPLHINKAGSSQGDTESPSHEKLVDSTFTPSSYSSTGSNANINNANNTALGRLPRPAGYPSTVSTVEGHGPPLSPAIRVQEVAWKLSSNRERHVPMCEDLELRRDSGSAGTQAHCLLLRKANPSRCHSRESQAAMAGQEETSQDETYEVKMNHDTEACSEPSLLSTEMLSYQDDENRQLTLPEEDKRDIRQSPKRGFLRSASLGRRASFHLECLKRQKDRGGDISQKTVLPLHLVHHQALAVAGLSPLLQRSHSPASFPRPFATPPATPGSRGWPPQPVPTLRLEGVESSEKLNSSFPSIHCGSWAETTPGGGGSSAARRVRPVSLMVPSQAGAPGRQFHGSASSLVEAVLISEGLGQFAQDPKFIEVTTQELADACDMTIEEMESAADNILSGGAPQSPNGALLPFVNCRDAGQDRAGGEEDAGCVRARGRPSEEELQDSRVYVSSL
T1 sequence (Q9NY47 19-1001 partner limits assumed): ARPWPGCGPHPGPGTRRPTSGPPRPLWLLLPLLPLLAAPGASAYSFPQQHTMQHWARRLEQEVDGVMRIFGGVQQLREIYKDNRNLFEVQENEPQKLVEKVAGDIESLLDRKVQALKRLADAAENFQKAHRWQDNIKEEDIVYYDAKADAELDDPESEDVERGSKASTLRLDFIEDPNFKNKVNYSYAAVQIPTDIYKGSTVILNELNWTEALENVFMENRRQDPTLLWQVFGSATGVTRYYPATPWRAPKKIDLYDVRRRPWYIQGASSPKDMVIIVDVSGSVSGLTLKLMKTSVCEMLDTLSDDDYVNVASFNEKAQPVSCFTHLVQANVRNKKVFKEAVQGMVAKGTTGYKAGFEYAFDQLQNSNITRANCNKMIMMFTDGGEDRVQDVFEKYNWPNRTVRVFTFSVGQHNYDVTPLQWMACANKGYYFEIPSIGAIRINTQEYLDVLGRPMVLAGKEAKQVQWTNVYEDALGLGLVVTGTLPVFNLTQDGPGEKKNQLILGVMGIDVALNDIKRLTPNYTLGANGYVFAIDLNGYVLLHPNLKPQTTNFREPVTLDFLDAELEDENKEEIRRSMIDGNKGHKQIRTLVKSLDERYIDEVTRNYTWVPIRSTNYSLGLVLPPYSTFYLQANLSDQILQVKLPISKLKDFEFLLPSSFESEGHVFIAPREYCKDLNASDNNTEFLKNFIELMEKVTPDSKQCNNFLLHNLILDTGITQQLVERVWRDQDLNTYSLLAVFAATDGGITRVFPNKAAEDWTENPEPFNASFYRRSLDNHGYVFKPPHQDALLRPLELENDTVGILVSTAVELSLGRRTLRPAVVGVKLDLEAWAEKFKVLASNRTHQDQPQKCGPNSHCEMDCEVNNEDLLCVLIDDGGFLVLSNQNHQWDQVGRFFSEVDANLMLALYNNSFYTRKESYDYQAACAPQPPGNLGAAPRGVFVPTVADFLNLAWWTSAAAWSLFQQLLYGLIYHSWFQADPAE
T1 sequence (Q9NY47 1002-1150 partner limits assumed): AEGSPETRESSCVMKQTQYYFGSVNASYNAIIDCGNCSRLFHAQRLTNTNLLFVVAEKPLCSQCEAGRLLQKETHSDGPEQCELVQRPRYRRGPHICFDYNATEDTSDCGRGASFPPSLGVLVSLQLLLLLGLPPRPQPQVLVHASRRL
T1 sequence (Q08289 whole entry partner): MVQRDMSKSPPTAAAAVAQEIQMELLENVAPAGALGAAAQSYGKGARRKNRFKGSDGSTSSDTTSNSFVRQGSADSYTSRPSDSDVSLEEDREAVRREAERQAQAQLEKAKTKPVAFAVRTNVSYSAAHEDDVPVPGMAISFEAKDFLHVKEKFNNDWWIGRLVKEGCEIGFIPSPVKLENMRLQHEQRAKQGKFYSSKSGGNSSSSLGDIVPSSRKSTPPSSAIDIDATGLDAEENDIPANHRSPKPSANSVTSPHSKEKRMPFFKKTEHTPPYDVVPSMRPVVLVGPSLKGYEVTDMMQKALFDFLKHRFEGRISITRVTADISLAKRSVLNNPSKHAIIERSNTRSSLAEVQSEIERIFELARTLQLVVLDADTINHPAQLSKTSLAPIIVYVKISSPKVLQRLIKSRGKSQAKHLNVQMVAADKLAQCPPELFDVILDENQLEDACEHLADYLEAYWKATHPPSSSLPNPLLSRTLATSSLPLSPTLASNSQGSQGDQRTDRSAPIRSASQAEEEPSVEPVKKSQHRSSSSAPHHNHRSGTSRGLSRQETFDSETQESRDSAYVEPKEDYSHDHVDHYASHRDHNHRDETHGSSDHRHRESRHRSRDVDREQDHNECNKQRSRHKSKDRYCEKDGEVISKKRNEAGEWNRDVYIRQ

SMILES: COC(=O)C1=C(C)NC2=C(C(=O)OC2)[C@H]1c1cccc(F)c1[C@@H](F)CF (single isomer, unassigned) [Example 11, Methyl (S)-4-(2-((R or S)-1,2-difluoroethyl)-3-fluorophenyl)-2-methyl-5-oxo-1,4,5,7-tetrahydrofuro[3,4-b]pyridine-3-carboxylate]
- EC50 (human Cav1.2 [1]; [4]): 40 nM
- QPatch Emax (human Cav1.2 [1]): 1.4
- Biophysics voltage shift (human Cav1.2 [2]; [5]): −6.8 mV

SMILES: COC(=O)C1=C(C)NC2=C(C(=O)OC2)[C@H]1c1cccc(F)c1C1CCC1 (single isomer, unassigned) [Example 3]
- EC50 (human Cav1.2 [1]; [4]): 80 nM
- QPatch Emax (human Cav1.2 [1]): 1.8
- Biophysics voltage shift (human Cav1.2 [2]; [5]): −6.6 mV

- Kp at 1 h ([3]; intraperitoneal): 0.23
SMILES: CCOC(=O)C1=C(C)NC2=C(C(=O)OC2)[C@H]1c1ccccc1OC(F)F (single isomer, unassigned) [reference compound]
- EC50 (human Cav1.2 [1]; [6]): 280 nM
- QPatch Emax (human Cav1.2 [1]; comparative examples (Table 6)): 2.2
- Biophysics voltage shift (human Cav1.2 [2]; comparative examples (Table 6)): −6.7 mV

- Kp at 1 h ([3]; ip): 1.2
SMILES: COC(=O)C1=C(C)NC2=C(C(=O)OC2)[C@H]1c1cccc(F)c1C1CC1 (single isomer, unassigned) [Example 4]
- % ↑cFOS mRNA cortex (3 mg/kg ip) (cFos mRNA): 247%
- % ↑cFOS mRNA cortex (10 mg/kg ip) (cFos mRNA): 398%
- EC50 (human Cav1.2 [1]; [4]): 110 nM
- QPatch Emax (human Cav1.2 [1]): 2.1
- Biophysics voltage shift (human Cav1.2 [2]; [5]): −4.5 mV

- Kp at 1 h ([3]; ip): 0.6
SMILES: C=C(c1c(F)cccc1[C@H]1C(C(=O)OC)=C(C)NC2=C1C(=O)OC2)C(F)(F)F [Example 16, (S)-methyl 4-(3-fluoro-2-(3,3,3-trifluoroprop-1-en-2-yl)phenyl)-2-methyl-5-oxo-1,4,5,7-tetrahydrofuro[3,4-b]pyridine-3-carboxylate]
- % ↑cFOS mRNA cortex (3 mg/kg ip) (cFos mRNA): 121%
- EC50 (human Cav1.2 [1]; [4]): 4 nM
- QPatch Emax (human Cav1.2 [1]): 1.5
- Biophysics voltage shift (human Cav1.2 [2]; [5]): −3.3 mV

- Kp at 1 h ([3]; ip): 1
SMILES: CCc1c(F)cccc1[C@H]1C(C(=O)OC)=C(C)NC2=C1C(=O)OC2 (single isomer, unassigned) [Example 13]
- % ↑cFOS mRNA cortex (3 mg/kg ip) (cFos mRNA): 165%
- % ↑cFOS mRNA cortex (10 mg/kg ip) (cFos mRNA): 281%
- EC50 (human Cav1.2 [1]; [4]): 220 nM
- QPatch Emax (human Cav1.2 [1]): 1.5
- Biophysics voltage shift (human Cav1.2 [2]; [5]): −4.8 mV

SMILES: COC(=O)C1=C(C)NC2=C(C(=O)OC2)[C@H]1c1cc(F)cc(F)c1[C@H]1CC1(F)F (single isomer, unassigned) [Example 5, Methyl (S)-4-(2-((R or S)-2,2-difluorocyclopropyl)-3,5-difluorophenyl)-2-methyl-5-oxo-1,4,5,7-tetrahydrofuro[3,4-b]pyridine-3-carboxylate]
- EC50 (human Cav1.2 [1]; [4]): 53 nM
- QPatch Emax (human Cav1.2 [1]): 2.5
- Biophysics voltage shift (human Cav1.2 [2]; [5]): −7.2 mV

- Kp at 1 h ([3]; ip): 0.8
SMILES: CCc1c(F)cc(F)cc1[C@H]1C(C(=O)OC)=C(C)NC2=C1C(=O)OC2 (single isomer, unassigned) [Example 12]
- % ↑cFOS mRNA cortex (3 mg/kg ip) (cFos mRNA): 128%
- EC50 (human Cav1.2 [1]; [4]): 110 nM
- QPatch Emax (human Cav1.2 [1]): 1.4
- Biophysics voltage shift (human Cav1.2 [2]; [5]): −7.4 mV

SMILES: CCOC(=O)C1=C(C)NC2=C(C(=O)OC2)C1c1ccccc1C(F)(F)F (single isomer, unassigned) [reference compound]
- EC50 (human Cav1.2 [1]; [6]): 930 nM
- QPatch Emax (human Cav1.2 [1]; comparative examples (Table 6)): 1.9

SMILES: COC(=O)C1=C(C)NC2=C(C(=O)OC2)C1c1ccccc1C(F)(F)F (single isomer, unassigned) [reference compound]
- EC50 (human Cav1.2 [1]; [6]): 360 nM
- QPatch Emax (human Cav1.2 [1]; comparative examples (Table 6)): 1.4
- Biophysics voltage shift (human Cav1.2 [2]; comparative examples (Table 6)): −4.3 mV

SMILES: COC(=O)C1=C(C)NC2=C(C(=O)OC2)[C@H]1c1cccc(F)c1C(C)(C)F (single isomer, unassigned) [Example 8]
- EC50 (human Cav1.2 [1]; [4]): 218 nM
- QPatch Emax (human Cav1.2 [1]): 1.6

- Kp at 1 h ([3]; ip): 0.9
SMILES: COC(=O)C1=C(C)NC2=C(C(=O)OC2)[C@H]1c1cccc(F)c1[C@H](C)F (single isomer, unassigned) [Example 10, Methyl (S)-4-(3-fluoro-2-((S or R)-1-fluoroethyl)phenyl)-2-methyl-5-oxo-1,4,5,7-tetrahydrofuro[3,4-b]pyridine-3-carboxylate]
- % ↑cFOS mRNA cortex (3 mg/kg ip) (cFos mRNA): 204%
- EC50 (human Cav1.2 [1]; [4]): 40 nM
- QPatch Emax (human Cav1.2 [1]): 2.2

- Kp at 1 h ([3]; ip): 2.9
SMILES: C=C(c1c(F)cc(F)cc1[C@H]1C(C(=O)OC)=C(C)NC2=C1C(=O)OC2)C(F)(F)F (single isomer, unassigned) [Example 19]
- % ↑cFOS mRNA cortex (3 mg/kg ip) (cFos mRNA): 138%
- EC50 (human Cav1.2 [1]; [4]): 12 nM
- QPatch Emax (human Cav1.2 [1]): 1.7
- Biophysics voltage shift (human Cav1.2 [2]; [5]): −1.8 mV

- Kp at 1 h ([3]; ip): 1.7
SMILES: COC(=O)C1=C(C)NC2=C(C(=O)OC2)[C@H]1c1cc(F)cc(F)c1[C@@H](C)F (single isomer, unassigned) [Example 7, Methyl (S)-4-(3,5-difluoro-2-((S or R)-1-fluoroethyl)phenyl)-2-methyl-5-oxo-1,4,5,7-tetrahydrofuro[3,4-b]pyridine-3-carboxylate]
- % ↑cFOS mRNA cortex (3 mg/kg ip) (cFos mRNA): 158%
- EC50 (human Cav1.2 [1]; [4]): 30 nM
- QPatch Emax (human Cav1.2 [1]): 1.7
- Biophysics voltage shift (human Cav1.2 [2]; [5]): −6.6 mV

SMILES: CCOC(=O)C1=C(C)NC2=C(C(=O)OC2)[C@H]1c1ccccc1OCc1ccccc1 (single isomer, unassigned) [reference compound]
- EC50 (human Cav1.2 [1]; [6]): 450 nM
- QPatch Emax (human Cav1.2 [1]; comparative examples (Table 6)): 4.3
- Biophysics voltage shift (human Cav1.2 [2]; comparative examples (Table 6)): −15.4 mV

- Kp at 1 h ([3]; ip): 1.7
SMILES: COC(=O)C1=C(C)NC2=C(C(=O)OC2)[C@H]1c1cc(F)cc(F)c1C1CC1 (single isomer, unassigned) [Example 14]
- % ↑cFOS mRNA cortex (3 mg/kg ip) (cFos mRNA): 228%
- % ↑cFOS mRNA cortex (10 mg/kg ip) (cFos mRNA): 364%
- EC50 (human Cav1.2 [1]; [4]): 65 nM
- QPatch Emax (human Cav1.2 [1]): 1.8
- Biophysics voltage shift (human Cav1.2 [2]; [5]): −1.9 mV

SMILES: COC(=O)C1=C(C)NC2=C(C(=O)OC2)C1c1ccccc1C (single isomer, unassigned) [reference compound]
- EC50 (human Cav1.2 [1]; [6]): 2240 nM
- QPatch Emax (human Cav1.2 [1]; comparative examples (Table 6)): 1.4

SMILES: COC(=O)C1=C(C)NC2=C(C(=O)OC2)[C@H]1c1cc(F)cc(F)c1C(C)C (single isomer, unassigned) [Example 18]
- EC50 (human Cav1.2 [1]; [4]): 102 nM
- QPatch Emax (human Cav1.2 [1]): 2.2
- Biophysics voltage shift (human Cav1.2 [2]; [5]): −6.5 mV

SMILES: COC(=O)C1=C(C)NC2=C(C(=O)OC2)[C@H]1c1cccc(F)c1CC(F)F [Example 17, (S)-methyl 4-(2-(2,2-difluoroethyl)-3-fluorophenyl)-2-methyl-5-oxo-1,4,5,7-tetrahydrofuro[3,4-b]pyridine-3-carboxylate]
- EC50 (human Cav1.2 [1]; [4]): 271 nM
- QPatch Emax (human Cav1.2 [1]): 1.8
- Biophysics voltage shift (human Cav1.2 [2]; [5]): −6.6 mV

SMILES: COC(=O)C1=C(C)NC2=C(C(=O)OC2)[C@H]1c1cccc(F)c1C1CC(F)C1 (single isomer, unassigned) [Example 20]
- EC50 (human Cav1.2 [1]; [4]): 86 nM
- QPatch Emax (human Cav1.2 [1]): 1.6
- Biophysics voltage shift (human Cav1.2 [2]; [5]): −6.1 mV

SMILES: COC(=O)C1=C(C)NC2=C(C(=O)OC2)C1c1ccccc1OC(F)F (single isomer, unassigned) [reference compound]
- EC50 (human Cav1.2 [1]; [6]): 510 nM
- QPatch Emax (human Cav1.2 [1]; comparative examples (Table 6)): 1.7
- Biophysics voltage shift (human Cav1.2 [2]; comparative examples (Table 6)): −7.1 mV

SMILES: COC(=O)C1=C(C)NC(C)=C([N+](=O)[O-])[C@H]1c1ccccc1C(F)(F)F (single isomer, unassigned) [reference compound]
- QPatch Emax (human Cav1.2 [1]; comparative examples (Table 6)): 3.9

SMILES: COC(=O)C1=C(C)NC2=C(C(=O)OC2)[C@H]1c1cc(F)cc(F)c1[C@H]1CC1(F)F (single isomer, unassigned) [Example 6, Methyl (S)-4-(2-((R or S)-2,2-difluorocyclopropyl)-3,5-difluorophenyl)-2-methyl-5-oxo-1,4,5,7-tetrahydrofuro[3,4-b]pyridine-3-carboxylate]
- EC50 (human Cav1.2 [1]; [4]): 81 nM
- QPatch Emax (human Cav1.2 [1]): 2.6
- Biophysics voltage shift (human Cav1.2 [2]; [5]): −4.8 mV
